US6887896B1, “7-[(7-Alkoxy)-chrom-3-en-6-yl]-heptatrienoic acid and 7-[(3-alkoxy)-5,6-dihydronaphthalen-2-yl]-heptatrienoic acid derivatives having serum glucose reducing activity” (Allergan, Inc., priority 2003, dated 2005)

What was measured:
RARβ = biological target: T1, RARβ (Homo sapiens, UniProt P10826); experiment: ligand binding assay, RARβ; settings: for Ki: read-out: RAR Bind. Ki β; for Kd: Table 9 (Formula F), read-out: RAR β Kd
T1 sequence (P10826 1-455): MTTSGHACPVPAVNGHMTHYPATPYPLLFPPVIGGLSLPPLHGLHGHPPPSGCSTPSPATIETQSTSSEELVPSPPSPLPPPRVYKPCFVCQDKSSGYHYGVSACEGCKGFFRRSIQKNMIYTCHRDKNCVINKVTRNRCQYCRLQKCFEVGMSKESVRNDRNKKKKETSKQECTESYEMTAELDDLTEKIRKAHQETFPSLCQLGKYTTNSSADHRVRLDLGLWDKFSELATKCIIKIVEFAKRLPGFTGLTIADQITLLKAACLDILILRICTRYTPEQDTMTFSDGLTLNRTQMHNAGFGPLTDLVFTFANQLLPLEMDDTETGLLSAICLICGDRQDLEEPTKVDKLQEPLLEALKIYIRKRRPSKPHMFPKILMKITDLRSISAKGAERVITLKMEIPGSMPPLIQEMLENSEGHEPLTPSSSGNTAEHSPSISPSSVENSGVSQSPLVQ
Excerpt: (§1) Specifically, one such assay is a chimeric receptor transactivation assay which tests for agonist-like activity in the R RAPE and RAR7 receptor subtypes, and which is based on work published by Feigner, P. L. and Holm, M (1989) Focus, 112 is described in detail in U.S. Pat. No. 5,455,265. The specification of U.S. Pat. No. 5,455,265 is hereby expressly incorporated by reference. A holoreceptor transactivation assay and a ligand binding assay which measure the antagonist/agonist like activity of the compounds of the invention, or their ability to bind to the several retinoid receptor subtypes, respectively, are described in published PCT Application No. WO WO93/11755 (particularly on pages 30-33 and 37-41) published on Jun. 24, 1993, the specification of which is also incorporated herein by reference. A detailed experimental procedure for holoreceptor transactivations has been described by Heyman et al. Cell 68, 397-406, (1992); Allegretto et al. J. Biol. Chem. 268, 26625-26633, and Mangelsdorf et al. The Retinoids: Biology, Chemistry and Medicine, pp 319-349, Raven Press Ltd., New York, which are expressly incorporated herein by reference. The results obtained in this assay are expressed in EC50 numbers, as they are also in the chimeric receptor transactivation assay. The results of the ligand binding assay are expressed in Ki numbers. (See Cheng et al. Biochemical Pharmacology Vol. 22 pp 3099-3108, expressly incorporated herein by reference.)
(§2) Generally speaking, in the tables disclosing the results of transactivation and binding assays the numbers in parentheses indicate efficacy as a percentage compared to the standard compound, (2E,4E,1′S,2′S)-3-methyl-5-[2′-methyl-2′-(5,5,8,8-tetramethyl-5,6,7,8-tetrahydro-naphthalen-2-yl)cyclopropyl]-penta-2,4-dienoic acid and the other numbers indicate the measured EC50 and K; in nanomolar concentration.

RXRβ [1] = biological target: T2, RXRβ (UniProt P28704); experiment: ligand binding assay, RXRβ; settings: for Ki: read-out: RXR Bind Ki β; for Kd: Table 9 (Formula F), read-out: RXR β Kd
T2 sequence (P28704 1-520): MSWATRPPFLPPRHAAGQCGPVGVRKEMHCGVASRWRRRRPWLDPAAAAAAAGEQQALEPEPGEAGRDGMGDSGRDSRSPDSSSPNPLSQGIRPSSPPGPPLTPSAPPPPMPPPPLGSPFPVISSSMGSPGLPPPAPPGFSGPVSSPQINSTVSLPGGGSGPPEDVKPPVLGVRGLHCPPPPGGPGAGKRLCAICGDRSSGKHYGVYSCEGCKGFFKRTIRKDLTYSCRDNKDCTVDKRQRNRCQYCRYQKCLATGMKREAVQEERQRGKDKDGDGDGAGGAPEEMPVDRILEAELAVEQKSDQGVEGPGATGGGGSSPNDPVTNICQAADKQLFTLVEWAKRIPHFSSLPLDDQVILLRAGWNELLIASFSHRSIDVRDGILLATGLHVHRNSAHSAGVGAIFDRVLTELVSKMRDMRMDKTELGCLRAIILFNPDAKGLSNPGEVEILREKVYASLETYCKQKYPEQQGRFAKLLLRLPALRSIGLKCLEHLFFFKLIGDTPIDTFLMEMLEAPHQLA
Excerpt: as §1, §2

RXRβ [2] = biological target: T2, RXRβ; experiment: holoreceptor transactivation assay, RXRβ; type: cell-based
Excerpt: as §1
(§3) Efficacy in a transactivation assay is expressed as a percentage of the maximum potency attained by the compound compared to a standard which, in this case, is the compound named (2E,4E,1′S,2′S)-3-methyl-5-[2′-methyl-2′-(5,5,8,8-tetramethyl-5,6,7,8-tetrahydro-naphthalen-2-yl)-cyclopropyl]-penta-2,4-dienoic acid. This standard compound is described in U.S. Pat. No. 6,114,533.
(§4) The specification of this application for patent is organized in several sections in accordance with structural Formulas A through F each of which discloses a group of preferred compounds within the scope of the invention. Tables that disclose the activity of certain exemplary compounds of the invention in the above-described RXR receptor transactivation and binding assays are found in the corresponding sections. […] The transactivation data pertaining to the activation of RXR receptors were obtained in the holoreceptor assay.
as §2

RXRα [3] = biological target: T3, RXRα (Homo sapiens, UniProt P19793); experiment: ligand binding assay, RXRα; settings: for Ki: read-out: RXR Bind Ki α; for Kd: Table 9 (Formula F), read-out: RXR α Kd
T3 construct: expressed in transfected cells
T3 sequence (P19793 1-462): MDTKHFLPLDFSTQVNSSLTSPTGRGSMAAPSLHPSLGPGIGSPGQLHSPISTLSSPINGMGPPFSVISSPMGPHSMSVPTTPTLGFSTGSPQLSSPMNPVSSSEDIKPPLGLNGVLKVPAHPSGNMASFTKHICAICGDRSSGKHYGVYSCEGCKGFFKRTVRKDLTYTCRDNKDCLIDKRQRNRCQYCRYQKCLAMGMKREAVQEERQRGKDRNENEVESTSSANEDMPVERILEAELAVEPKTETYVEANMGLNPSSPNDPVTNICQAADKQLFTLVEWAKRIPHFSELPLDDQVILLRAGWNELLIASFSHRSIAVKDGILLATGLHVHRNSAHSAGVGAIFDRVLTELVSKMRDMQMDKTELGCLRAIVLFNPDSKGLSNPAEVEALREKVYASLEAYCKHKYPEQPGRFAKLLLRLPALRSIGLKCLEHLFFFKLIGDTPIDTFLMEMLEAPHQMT
Excerpt: as §1, §2

RARα = biological target: T4, RARα (Homo sapiens, UniProt P10276); experiment: ligand binding assay, RARα; settings: for Ki: read-out: RAR Bind. Ki α; for Kd: Table 9 (Formula F), read-out: RAR α Kd
T4 sequence (P10276 1-462): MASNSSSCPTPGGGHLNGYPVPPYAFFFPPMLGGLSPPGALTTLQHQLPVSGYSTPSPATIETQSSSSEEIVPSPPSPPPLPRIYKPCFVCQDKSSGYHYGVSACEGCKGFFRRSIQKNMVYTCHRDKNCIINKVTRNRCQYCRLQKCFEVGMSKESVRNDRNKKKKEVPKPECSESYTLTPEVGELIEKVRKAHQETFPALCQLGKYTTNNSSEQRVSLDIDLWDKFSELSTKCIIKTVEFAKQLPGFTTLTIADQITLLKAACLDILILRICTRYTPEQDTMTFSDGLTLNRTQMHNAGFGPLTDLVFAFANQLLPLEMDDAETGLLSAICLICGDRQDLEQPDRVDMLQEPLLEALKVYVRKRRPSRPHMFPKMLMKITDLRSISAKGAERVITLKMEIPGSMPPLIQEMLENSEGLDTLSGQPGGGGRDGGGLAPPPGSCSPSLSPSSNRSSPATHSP
Excerpt: as §1, §2

RARγ = biological target: T5, RARγ (Homo sapiens, UniProt P13631); experiment: ligand binding assay, RARγ; settings: for Ki: read-out: RAR Bind. Ki γ; for Kd: Table 9 (Formula F), read-out: RAR γ Kd
T5 sequence (P13631 1-454): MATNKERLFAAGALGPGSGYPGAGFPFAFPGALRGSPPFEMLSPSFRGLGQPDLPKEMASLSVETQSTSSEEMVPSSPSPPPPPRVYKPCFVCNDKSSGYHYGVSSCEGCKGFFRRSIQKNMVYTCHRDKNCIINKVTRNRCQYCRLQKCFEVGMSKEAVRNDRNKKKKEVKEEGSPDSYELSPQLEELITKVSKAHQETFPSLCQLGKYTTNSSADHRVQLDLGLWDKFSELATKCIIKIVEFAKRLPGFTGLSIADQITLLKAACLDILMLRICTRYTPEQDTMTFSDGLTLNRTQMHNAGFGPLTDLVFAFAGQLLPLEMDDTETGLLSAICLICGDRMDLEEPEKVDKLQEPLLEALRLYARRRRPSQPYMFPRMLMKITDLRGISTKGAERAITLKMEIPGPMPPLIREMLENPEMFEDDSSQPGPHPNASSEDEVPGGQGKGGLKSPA
Excerpt: as §1, §2

RXRα [4] = biological target: T3, RXRα; experiment: holoreceptor transactivation assay, RXRα; type: cell-based
Excerpt: as §1, §3, §4, §2

ob/ob mice [5] = experiment: serum glucose, triglycerides and T4 in ob/ob mice, drug mixed in control diet over 7 days; type: in vivo; settings: 2.5 mg/kg per day in diet
ob/ob mice [6] = experiment: serum glucose, triglycerides and T4 in diabetic mice, oral gavage in corn oil daily for seven days; type: in vivo; settings: for Glucose Day 0 / Triglycerides Day 0: day 0 (pre-treatment)
[7] = 4 mg/kg, corn oil vehicle (second Table 9)
[8] = 5 mg/kg, corn oil vehicle (Table 7)

CCOc1cc2c(cc1\C(C)=C/C=C/C(C)=C/C(=O)O)C(C(C)C)=CC(C)(C)O2 [Compound 47, 7-(7-Ethoxy-4-isopropyl-2,2-dimethyl-2H-chromen-6-yl)-3-methyl-octa-2E,4E,6Z-trienoic acid]
Ki (RARβ): 3900 nM
Ki (RXRβ [1]): 150 nM
EC50 (RXRβ [2]; holoreceptor transactivation, read-out: RXR Trans. EC50 β): 288 nM
RXR Trans. efficacy (number in parentheses) β (RXRβ [2]; percentage compared to the standard compound): 6%
Ki (RXRα [3]): 15 nM
Ki (RARα): > 10000 nM

CCOc1cc2c(cc1\C(C)=C(F)/C=C/C(C)=C/C(=O)O)C(C(C)C)=CC(C)(C)O2 [Compound 124, (2E,4E,6E)-7-(7-Ethoxy-4-isopropyl-2,2-dimethyl-2H-Chromen-6-yl)-6-fluoro-3-methyl-octa-2.46-trienoic acid]
Ki (RARγ): 3300 nM
Ki (RARβ): 1000 nM
Ki (RXRβ [1]): 42 nM
Ki (RXRα [3]): 6 nM
Ki (RARα): 523 nM

CCCOc1cc2c(cc1\C(C)=C(F)/C=C/C(C)=C/C(=O)O)C(C(C)C)=CC(C)(C)O2 [Compound 125, (2E,4E,6E) 6-Fluoro-7-(4-isopropyl-2,2-dimethyl-7-propoxy-2H-chromen-6-yl)-3-methyl-octa-2,4,6-trienoic acid]
Ki (RARγ): 43 nM
Ki (RARβ): 3 nM
Ki (RXRβ [1]): 73 nM
Ki (RXRα [3]): 8 nM
Ki (RARα): 12 nM

CCCCOc1cc2c(cc1\C(C)=C(F)/C=C/C(C)=C/C(=O)O)C(C(C)C)=CC(C)(C)O2 [Compound 126, (2E,4E,6E)-7-(7-Butoxy-4-isopropyl-2,2-dimethyl-2H-chromen-6-yl)-6-fluoro-3-methyl-octa-2,4,6-trienoic acid]
Ki (RARγ): 3000 nM
Ki (RARβ): 522 nM
Ki (RXRβ [1]): 59 nM
Ki (RXRα [3]): 8 nM
Ki (RARα): 860 nM

CCCOc1c(\C(C)=C(F)/C=C/C(C)=C/C(=O)O)cc2c(c1Br)C(C)(C)CC=C2C(C)C [Compound A-173, (2E,4E,6E)-7-(4-Bromo-8-isopropyl-5,5-dimethyl-3-propoxy-5,6-dihydro-nahthalen-2-yl)-6-fluoro-3-methyl-octa-2,4,6-trienoic acid]
Kd (RARγ): 810 nM
Kd (RARβ): 192 nM
EC50 (RXRα [4]; holoreceptor transactivation, read-out: RXR Trans. EC50 α): 1 nM
Emax (RXRα [4]; percentage compared to the standard compound, read-out: RXR Trans. efficacy (number in parentheses) α): 5%
Kd (RXRβ [1]): 11 nM
Kd (RXRα [3]): 2 nM
Kd (RARα): 91 nM

CC(/C=C/C(F)=C(/C)c1cc2c(c(Br)c1OC(C)C)C(C)(C)CC=C2C(C)(C)C)=C\C(=O)O [Compound A-175, (2E,4E,6E)-7-(4 Bromo-8-tert-butyl-3-isopropoxy-5,5-dimethyl-5,6 dihydro-naphthalen-2-yl)-6-fluoro-3-methyl-octa-2,4,6-trienoic acid]
Kd (RARγ): 866 nM
Kd (RARβ): 280 nM
Kd (RXRβ [1]): 31 nM
Kd (RXRα [3]): 9 nM
Kd (RARα): 458 nM

CC(/C=C/[C@@H]1C[C@]1(C)c1ccc2c(c1)C(C)(C)CCC2(C)C)=C\C(=O)O [Standard compound, (2E,4E,1′S,2′S)-3-methyl-5-[2′-methyl-2′-(5,5,8,8-tetramethyl-5,6,7,8-tetrahydro-naphthalen-2-yl)-cyclopropyl]-penta-2,4-dienoic acid]
Glucose Day 3, 3 h (ob/ob mice [5]): 107 mg/dL
Glucose Day 6, 3 h (ob/ob mice [5]): 136 mg/dL
T4 Day 7 (ob/ob mice [5]): 0.8 µg/dL
Triglycerides Day 3, 3 h (ob/ob mice [5]): 55 ± 23 mg/dL
Glucose Day 0 (ob/ob mice [5]; day 0 (pre-treatment)): 246 mg/dL
Triglycerides Day 0 (ob/ob mice [5]; day 0 (pre-treatment)): 92 ± 41 mg/dL
Glucose Day 3, 3 h (ob/ob mice [6]; [7]): 312 mg/dL
Glucose Day 6, 3 h (ob/ob mice [6]; [7]): 291 mg/dL
T4 Day 7 (ob/ob mice [6]; [7]): 0.5 µg/dL
Triglycerides Day 3, 3 h (ob/ob mice [6]; [7]): 309 mg/dL
Glucose Day 0 (ob/ob mice [6]; [7]): 544 mg/dL
Triglycerides Day 0 (ob/ob mice [6]; [7]): 261 mg/dL
Glucose Day 3, 3 h (ob/ob mice [6]; [8]): 301 mg/dL
Glucose Day 6, 3 h (ob/ob mice [6]; [8]): 218 mg/dL
T4 Day 7 (ob/ob mice [6]; [8]): 2.7 µg/dL
Triglycerides Day 3, 3 h (ob/ob mice [6]; [8]): 147 mg/dL
Glucose Day 0 (ob/ob mice [6]; [8]): 389 mg/dL
Triglycerides Day 0 (ob/ob mice [6]; [8]): 149 mg/dL
serum thyroxine levels (in words) (ob/ob mice [6]; diabetic mammals): undesirable side effect of reducing serum thyroxine levels
